Active and inactive are the calls of the source. The rule behind the calls is not given here.
System: Staphylococcus aureus
Assay: Antimicrobial activity against Staphylococcus aureus ATCC 29513 at 750 ug/ml after 24 hrs by cup plate method
Format: functional
Settings: ATCC 29513, 24 h, read-out: IZ

| SMILES | zone of inhibition at 750 µg/mL [mm] |
| --- | --- |
| Nc1nc(=O)[nH]c2c1C(c1c(-c3ccccc3)[nH]c3ccccc13)C=C(c1ccc(Cl)cc1)O2 (stereo not given) | 14 |
| O=c1[nH]cnc2c1C(c1c(-c3ccccc3)[nH]c3ccc(Cl)cc13)C=C(c1ccccc1)O2 (stereo not given) | 12 |

System: Escherichia coli
Assay: Antimicrobial activity against Escherichia coli MTCC 723 at 1000 ug/ml after 24 hrs by cup plate method
Format: functional
Settings: MTCC 723, 24 h, read-out: IZ

| SMILES | zone of inhibition at 1000 µg/mL [mm] |
| --- | --- |
| Nc1nc(=O)[nH]c2c1C(c1c(-c3ccccc3)[nH]c3ccccc13)C=C(c1ccc(Cl)cc1)O2 (stereo not given) | 14 |
| O=c1[nH]cnc2c1C(c1c(-c3ccccc3)[nH]c3ccc(Cl)cc13)C=C(c1ccccc1)O2 (stereo not given) | 11 |

System: Pseudomonas aeruginosa
Assay: Antimicrobial activity against Pseudomonas aeruginosa MTCC 1688 at 1000 ug/ml after 24 hrs by cup plate method
Format: functional
Settings: MTCC 1688, 24 h, read-out: IZ

| SMILES | zone of inhibition at 1000 µg/mL [mm] |
| --- | --- |
| Nc1nc(=O)[nH]c2c1C(c1c(-c3ccccc3)[nH]c3ccccc13)C=C(c1ccc(Cl)cc1)O2 (stereo not given) | 13 |
| O=c1[nH]cnc2c1C(c1c(-c3ccccc3)[nH]c3ccc(Cl)cc13)C=C(c1ccccc1)O2 (stereo not given) | 3 |

System: Pseudomonas aeruginosa
Assay: Antimicrobial activity against Pseudomonas aeruginosa MTCC 1688 at 500 ug/ml after 24 hrs by cup plate method
Format: functional
Settings: MTCC 1688, 24 h, read-out: IZ

| SMILES | zone of inhibition at 500 µg/mL [mm] |
| --- | --- |
| Nc1nc(=O)[nH]c2c1C(c1c(-c3ccccc3)[nH]c3ccccc13)C=C(c1ccc(Cl)cc1)O2 (stereo not given) | 12 |
| O=c1[nH]cnc2c1C(c1c(-c3ccccc3)[nH]c3ccc(Cl)cc13)C=C(c1ccccc1)O2 (stereo not given) | 3 |

System: not listed separately
Assay: Antioxidant activity assessed as metal chelating activity by measuring inhibition of ferrozine-Fe2+ complex formation at 25 to 100 ug/ml
Format: functional
Settings: not given

| SMILES | Activity |
| --- | --- |
| Nc1nc(=O)[nH]c2c1C(c1c(-c3ccccc3)[nH]c3ccccc13)C=C(c1ccc(Cl)cc1)O2 (stereo not given) | Active |
| O=c1[nH]cnc2c1C(c1c(-c3ccccc3)[nH]c3ccc(Cl)cc13)C=C(c1ccccc1)O2 (stereo not given) | Active |

System: Pseudomonas aeruginosa
Assay: Antimicrobial activity against Pseudomonas aeruginosa MTCC 1688 at 750 ug/ml after 24 hrs by cup plate method
Format: functional
Settings: MTCC 1688, 24 h, read-out: IZ

| SMILES | zone of inhibition at 750 µg/mL [mm] |
| --- | --- |
| Nc1nc(=O)[nH]c2c1C(c1c(-c3ccccc3)[nH]c3ccccc13)C=C(c1ccc(Cl)cc1)O2 (stereo not given) | 12 |
| O=c1[nH]cnc2c1C(c1c(-c3ccccc3)[nH]c3ccc(Cl)cc13)C=C(c1ccccc1)O2 (stereo not given) | 3 |

System: Aspergillus flavus
Assay: Antimicrobial activity against Aspergillus flavus MTCC 1973 at 750 ug/ml after 72 hrs by cup plate method
Format: functional
Settings: MTCC 1973, 72 h, read-out: IZ

| SMILES | zone of inhibition at 750 µg/mL [mm] |
| --- | --- |
| Nc1nc(=O)[nH]c2c1C(c1c(-c3ccccc3)[nH]c3ccccc13)C=C(c1ccc(Cl)cc1)O2 (stereo not given) | 12 |
| O=c1[nH]cnc2c1C(c1c(-c3ccccc3)[nH]c3ccc(Cl)cc13)C=C(c1ccccc1)O2 (stereo not given) | 12 |

System: Staphylococcus aureus
Assay: Antimicrobial activity against Staphylococcus aureus ATCC 29513 at 1000 ug/ml after 24 hrs by cup plate method
Format: functional
Settings: ATCC 29513, 24 h, read-out: IZ

| SMILES | zone of inhibition at 1000 µg/mL [mm] |
| --- | --- |
| Nc1nc(=O)[nH]c2c1C(c1c(-c3ccccc3)[nH]c3ccccc13)C=C(c1ccc(Cl)cc1)O2 (stereo not given) | 14 |
| O=c1[nH]cnc2c1C(c1c(-c3ccccc3)[nH]c3ccc(Cl)cc13)C=C(c1ccccc1)O2 (stereo not given) | 12 |

System: Escherichia coli
Assay: Antimicrobial activity against Escherichia coli MTCC 723 at 500 ug/ml after 24 hrs by cup plate method
Format: functional
Settings: MTCC 723, 24 h, read-out: IZ

| SMILES | zone of inhibition at 500 µg/mL [mm] |
| --- | --- |
| Nc1nc(=O)[nH]c2c1C(c1c(-c3ccccc3)[nH]c3ccccc13)C=C(c1ccc(Cl)cc1)O2 (stereo not given) | 13 |
| O=c1[nH]cnc2c1C(c1c(-c3ccccc3)[nH]c3ccc(Cl)cc13)C=C(c1ccccc1)O2 (stereo not given) | 10 |

System: Aspergillus niger
Assay: Antimicrobial activity against Aspergillus niger MTCC 281 at 750 ug/ml after 72 hrs by cup plate method
Format: functional
Settings: MTCC 281, 72 h, read-out: IZ

| SMILES | zone of inhibition at 750 µg/mL [mm] |
| --- | --- |
| Nc1nc(=O)[nH]c2c1C(c1c(-c3ccccc3)[nH]c3ccccc13)C=C(c1ccc(Cl)cc1)O2 (stereo not given) | 5 |
| O=c1[nH]cnc2c1C(c1c(-c3ccccc3)[nH]c3ccc(Cl)cc13)C=C(c1ccccc1)O2 (stereo not given) | 7 |

System: Escherichia coli
Assay: Antimicrobial activity against Escherichia coli MTCC 723 at 750 ug/ml after 24 hrs by cup plate method
Format: functional
Settings: MTCC 723, 24 h, read-out: IZ

| SMILES | zone of inhibition at 750 µg/mL [mm] |
| --- | --- |
| Nc1nc(=O)[nH]c2c1C(c1c(-c3ccccc3)[nH]c3ccccc13)C=C(c1ccc(Cl)cc1)O2 (stereo not given) | 13 |
| O=c1[nH]cnc2c1C(c1c(-c3ccccc3)[nH]c3ccc(Cl)cc13)C=C(c1ccccc1)O2 (stereo not given) | 10 |

System: Aspergillus oryzae
Assay: Antimicrobial activity against Aspergillus oryzae MTCC 3567 at 1000 ug/ml after 72 hrs by cup plate method
Format: functional
Settings: MTCC 3567, 72 h, read-out: IZ

| SMILES | zone of inhibition at 1000 µg/mL [mm] |
| --- | --- |
| Nc1nc(=O)[nH]c2c1C(c1c(-c3ccccc3)[nH]c3ccccc13)C=C(c1ccc(Cl)cc1)O2 (stereo not given) | 3 |
| O=c1[nH]cnc2c1C(c1c(-c3ccccc3)[nH]c3ccc(Cl)cc13)C=C(c1ccccc1)O2 (stereo not given) | 13 |

System: Aspergillus terreus
Assay: Antimicrobial activity against Aspergillus terreus MTCC 1782 at 750 ug/ml after 72 hrs by cup plate method
Format: functional
Settings: MTCC 1782, 72 h, read-out: IZ

| SMILES | zone of inhibition at 750 µg/mL [mm] |
| --- | --- |
| Nc1nc(=O)[nH]c2c1C(c1c(-c3ccccc3)[nH]c3ccccc13)C=C(c1ccc(Cl)cc1)O2 (stereo not given) | 4 |
| O=c1[nH]cnc2c1C(c1c(-c3ccccc3)[nH]c3ccc(Cl)cc13)C=C(c1ccccc1)O2 (stereo not given) | 10 |

System: Klebsiella pneumoniae
Assay: Antimicrobial activity against Klebsiella pneumoniae NCTC 13368 at 1000 ug/ml after 24 hrs by cup plate method
Format: functional
Settings: NCTC 13368, 24 h, read-out: IZ

| SMILES | zone of inhibition at 1000 µg/mL [mm] |
| --- | --- |
| Nc1nc(=O)[nH]c2c1C(c1c(-c3ccccc3)[nH]c3ccccc13)C=C(c1ccc(Cl)cc1)O2 (stereo not given) | 8 |
| O=c1[nH]cnc2c1C(c1c(-c3ccccc3)[nH]c3ccc(Cl)cc13)C=C(c1ccccc1)O2 (stereo not given) | 9 |

System: Klebsiella pneumoniae
Assay: Antimicrobial activity against Klebsiella pneumoniae NCTC 13368 at 500 ug/ml after 24 hrs by cup plate method
Format: functional
Settings: NCTC 13368, 24 h, read-out: IZ

| SMILES | zone of inhibition at 500 µg/mL [mm] |
| --- | --- |
| Nc1nc(=O)[nH]c2c1C(c1c(-c3ccccc3)[nH]c3ccccc13)C=C(c1ccc(Cl)cc1)O2 (stereo not given) | 11 |
| O=c1[nH]cnc2c1C(c1c(-c3ccccc3)[nH]c3ccc(Cl)cc13)C=C(c1ccccc1)O2 (stereo not given) | 9 |

System: Aspergillus flavus
Assay: Antimicrobial activity against Aspergillus flavus MTCC 1973 at 1000 ug/ml after 72 hrs by cup plate method
Format: functional
Settings: MTCC 1973, 72 h, read-out: IZ

| SMILES | zone of inhibition at 1000 µg/mL [mm] |
| --- | --- |
| Nc1nc(=O)[nH]c2c1C(c1c(-c3ccccc3)[nH]c3ccccc13)C=C(c1ccc(Cl)cc1)O2 (stereo not given) | 12 |
| O=c1[nH]cnc2c1C(c1c(-c3ccccc3)[nH]c3ccc(Cl)cc13)C=C(c1ccccc1)O2 (stereo not given) | 13 |

System: Aspergillus terreus
Assay: Antimicrobial activity against Aspergillus terreus MTCC 1782 at 1000 ug/ml after 72 hrs by cup plate method
Format: functional
Settings: MTCC 1782, 72 h, read-out: IZ

| SMILES | zone of inhibition at 1000 µg/mL [mm] |
| --- | --- |
| Nc1nc(=O)[nH]c2c1C(c1c(-c3ccccc3)[nH]c3ccccc13)C=C(c1ccc(Cl)cc1)O2 (stereo not given) | 4 |
| O=c1[nH]cnc2c1C(c1c(-c3ccccc3)[nH]c3ccc(Cl)cc13)C=C(c1ccccc1)O2 (stereo not given) | 9 |

System: Klebsiella pneumoniae
Assay: Antimicrobial activity against Klebsiella pneumoniae NCTC 13368 at 750 ug/ml after 24 hrs by cup plate method
Format: functional
Settings: NCTC 13368, 24 h, read-out: IZ

| SMILES | zone of inhibition at 750 µg/mL [mm] |
| --- | --- |
| Nc1nc(=O)[nH]c2c1C(c1c(-c3ccccc3)[nH]c3ccccc13)C=C(c1ccc(Cl)cc1)O2 (stereo not given) | 10 |
| O=c1[nH]cnc2c1C(c1c(-c3ccccc3)[nH]c3ccc(Cl)cc13)C=C(c1ccccc1)O2 (stereo not given) | 9 |

System: Aspergillus terreus
Assay: Antimicrobial activity against Aspergillus terreus MTCC 1782 at 500 ug/ml after 72 hrs by cup plate method
Format: functional
Settings: MTCC 1782, 72 h, read-out: IZ

| SMILES | zone of inhibition at 500 µg/mL [mm] |
| --- | --- |
| Nc1nc(=O)[nH]c2c1C(c1c(-c3ccccc3)[nH]c3ccccc13)C=C(c1ccc(Cl)cc1)O2 (stereo not given) | 6 |
| O=c1[nH]cnc2c1C(c1c(-c3ccccc3)[nH]c3ccc(Cl)cc13)C=C(c1ccccc1)O2 (stereo not given) | 10 |

System: Aspergillus niger
Assay: Antimicrobial activity against Aspergillus niger MTCC 281 at 500 ug/ml after 72 hrs by cup plate method
Format: functional
Settings: MTCC 281, 72 h, read-out: IZ

| SMILES | zone of inhibition at 500 µg/mL [mm] |
| --- | --- |
| Nc1nc(=O)[nH]c2c1C(c1c(-c3ccccc3)[nH]c3ccccc13)C=C(c1ccc(Cl)cc1)O2 (stereo not given) | 5 |
| O=c1[nH]cnc2c1C(c1c(-c3ccccc3)[nH]c3ccc(Cl)cc13)C=C(c1ccccc1)O2 (stereo not given) | 7 |

System: Staphylococcus aureus
Assay: Antimicrobial activity against Staphylococcus aureus ATCC 29513 at 500 ug/ml after 24 hrs by cup plate method
Format: functional
Settings: ATCC 29513, 24 h, read-out: IZ

| SMILES | zone of inhibition at 500 µg/mL [mm] |
| --- | --- |
| Nc1nc(=O)[nH]c2c1C(c1c(-c3ccccc3)[nH]c3ccccc13)C=C(c1ccc(Cl)cc1)O2 (stereo not given) | 14 |
| O=c1[nH]cnc2c1C(c1c(-c3ccccc3)[nH]c3ccc(Cl)cc13)C=C(c1ccccc1)O2 (stereo not given) | 12 |

System: Aspergillus oryzae
Assay: Antimicrobial activity against Aspergillus oryzae MTCC 3567 at 750 ug/ml after 72 hrs by cup plate method
Format: functional
Settings: MTCC 3567, 72 h, read-out: IZ

| SMILES | zone of inhibition at 750 µg/mL [mm] |
| --- | --- |
| Nc1nc(=O)[nH]c2c1C(c1c(-c3ccccc3)[nH]c3ccccc13)C=C(c1ccc(Cl)cc1)O2 (stereo not given) | 5 |
| O=c1[nH]cnc2c1C(c1c(-c3ccccc3)[nH]c3ccc(Cl)cc13)C=C(c1ccccc1)O2 (stereo not given) | 13 |

System: Aspergillus niger
Assay: Antimicrobial activity against Aspergillus niger MTCC 281 at 1000 ug/ml after 72 hrs by cup plate method
Format: functional
Settings: MTCC 281, 72 h, read-out: IZ

| SMILES | zone of inhibition at 1000 µg/mL [mm] |
| --- | --- |
| Nc1nc(=O)[nH]c2c1C(c1c(-c3ccccc3)[nH]c3ccccc13)C=C(c1ccc(Cl)cc1)O2 (stereo not given) | 5 |
| O=c1[nH]cnc2c1C(c1c(-c3ccccc3)[nH]c3ccc(Cl)cc13)C=C(c1ccccc1)O2 (stereo not given) | 7 |

System: Aspergillus flavus
Assay: Antimicrobial activity against Aspergillus flavus MTCC 1973 at 500 ug/ml after 72 hrs by cup plate method
Format: functional
Settings: MTCC 1973, 72 h, read-out: IZ

| SMILES | zone of inhibition at 500 µg/mL [mm] |
| --- | --- |
| Nc1nc(=O)[nH]c2c1C(c1c(-c3ccccc3)[nH]c3ccccc13)C=C(c1ccc(Cl)cc1)O2 (stereo not given) | 12 |
| O=c1[nH]cnc2c1C(c1c(-c3ccccc3)[nH]c3ccc(Cl)cc13)C=C(c1ccccc1)O2 (stereo not given) | 12 |

System: Aspergillus oryzae
Assay: Antimicrobial activity against Aspergillus oryzae MTCC 3567 at 500 ug/ml after 72 hrs by cup plate method
Format: functional
Settings: MTCC 3567, 72 h, read-out: IZ

| SMILES | zone of inhibition at 500 µg/mL [mm] |
| --- | --- |
| Nc1nc(=O)[nH]c2c1C(c1c(-c3ccccc3)[nH]c3ccccc13)C=C(c1ccc(Cl)cc1)O2 (stereo not given) | 6 |
| O=c1[nH]cnc2c1C(c1c(-c3ccccc3)[nH]c3ccc(Cl)cc13)C=C(c1ccccc1)O2 (stereo not given) | 12 |
